Measured values as given in PubChem BioAssay (NCI).
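Five compound concentrations were applied to cells in 96-well plates for 48 hours; endpoints were derived by simple linear interpolation of the resulting dose-response curve. GI50 is the concentration that inhibits growth by half. TGI marks complete inhibition of growth.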 Where a SMILES comes first, the peptide text is derived from it. [ ]: non-standard residue; d: D form. The star is where a group is joined. Phe(4-NO2) = N[CH](Cc1ccc([N+](=O)[O-])cc1)C(=O)O; Boc = CC(C)(C)OC(=O)*

What was measured:
Test in all cases: growth of human tumour cells (NCI), 48 h
[1] = tested on: SF-295 CNS
[2] = tested on: NCI-H226 lung
[3] = tested on: SK-MEL-5 melanoma
[4] = tested on: OVCAR-4 ovarian
[5] = tested on: MDA-MB-435
[6] = tested on: T-47D breast
[7] = tested on: K-562 leukemia
[8] = tested on: HT29 colon
[9] = tested on: KM12 colon
[10] = tested on: SF-539 CNS

SMILES	TGI [1] [µM]	TGI [2] [µM]	TGI [3] [µM]	TGI [4] [µM]	TGI [5] [µM]	TGI [6] [µM]	TGI [7] [µM]	TGI [8] [µM]	TGI [9] [µM]	TGI [10] [µM]	GI50 [1] [µM]	GI50 [2] [µM]	GI50 [3] [µM]	GI50 [4] [µM]	GI50 [10] [µM]	GI50 [5] [µM]	GI50 [6] [µM]	GI50 [7] [µM]	GI50 [8] [µM]	GI50 [9] [µM]
O=C1c2ccccc2C2(c3ccc(F)cc3)NCCN12 (stereo not given)	> 100	> 100	> 100	> 100	> 100	> 100	> 100	> 100	> 100	–	–	–	–	–	–	–	–	–	–	–
COC(=O)c1c2c(cc3c1CC1(Cc4cc5c(c(C)c4C1)CCC5)C3)CCC2 (stereo not given)	> 100	–	> 100	> 100	> 100	> 100	> 100	> 100	–	> 100	–	–	–	–	–	–	–	–	–	–
O=Nc1c(-c2c(O)[nH]c3ccc(I)cc23)[nH]c2ccccc12	> 71.7	–	> 100	14.8	> 100	> 69.8	–	> 21.6	–	81.5	–	–	–	–	–	–	–	–	–	–
COc1cc2nc(N3CCC[C@H](NC4=CC(=O)c5ccccc5C4=O)C3)nc(N)c2cc1OC	4.06	55.6	3.26	3.19	4.03	3.63	1.42	4.07	3.22	3.77	1.96	16.6	1.73	1.61	1.94	2.05	1.9	0.348	2.02	1.77
O=C1C=CC(=O)c2c(O)c(N3CCOCC3)c(Cl)c(O)c21	3.21	3.34	0.822	0.663	0.406	4.36	> 10	0.586	3.32	1	–	–	–	–	–	–	–	–	–	–
COC(=O)C1C(=O)CC(C)(O)C(C(=O)OC)C1c1ccc(N(C)C)cc1 (stereo not given)	> 100	> 100	> 100	> 100	> 100	> 100	> 100	> 100	> 100	–	–	–	–	–	–	–	–	–	–	–
CSc1nnc(SCc2nn3c(=O)cc(C)nc3s2)s1	> 100	> 100	> 100	> 100	> 100	> 100	> 100	> 100	> 100	> 100	–	–	–	–	–	–	–	–	–	–
Cc1c(OCc2cccc3ccccc23)ccc2c(=O)cc(SCCN3CCOCC3)oc12	> 100	> 100	> 100	> 100	> 100	> 100	> 100	> 100	> 100	> 100	–	–	–	–	–	–	–	–	–	–
COC(=O)C(Cc1c[nH]c2ccccc12)NC(=O)C(Cc1c[nH]c2ccccc12)NC(=O)C(Cc1c[nH]c2ccccc12)NC(=O)C(Cc1c[nH]c2ccccc12)NC(=O)C(Cc1c[nH]c2ccccc12)NC(=O)C(Cc1c[nH]c2ccccc12)NC(=O)C(Cc1c[nH]c2ccccc12)NC(=O)OC(C)(C)C (stereo not given) (Boc-WWWWWWW-OMe; configuration not given here)	–	> 100	> 100	> 100	> 100	> 100	> 100	> 100	–	–	–	–	–	–	–	–	–	–	–	–
Cc1nc2ccc(Br)cc2c(=O)n1-c1ccc(N)cc1	> 100	> 100	> 100	> 100	> 100	–	> 100	> 100	> 100	> 100	–	–	–	–	–	–	–	–	–	–
O=C(Nc1ccc(-n2cc(-c3ccncc3)c(-c3ccc(O)c(Cl)c3)n2)cc1)c1ccc(Cl)c(C(F)(F)F)c1	4.15	> 50	5.67	> 50	39.4	37.2	> 50	2.72	> 50	3.41	1.35	> 50	1.46	2.52	0.96	2.06	3.43	1.37	1.2	1.93
COc1ccc(OC)c2c(C)ccnc12	95.3	> 93.4	> 84.4	> 71	> 100	> 100	> 100	> 100	> 100	> 68.7	–	–	–	–	–	–	–	–	–	–
Oc1cccc2c(Br)ccnc12	> 100	29.8	14.2	10.2	34.3	> 51.5	> 22.5	19.4	21.1	> 49.1	–	–	–	–	–	–	–	–	–	–
O=C1C=C(N2CCN(c3ncccn3)CC2)C(=O)c2c(O)ccc(O)c21	> 100	> 100	> 100	> 100	24.3	> 100	> 100	> 100	> 100	55.7	–	–	–	–	–	–	–	–	–	–
CCOC(=O)CCC(NC(=O)C(Cc1ccc([N+](=O)[O-])cc1)NC(=O)OC(C)(C)C)C(=O)NC(CCC(=O)OCC)C(=O)OCC (stereo not given) (Boc-[Phe(4-NO2)]-Glu(OEt)-Glu(OEt)-OEt; configuration not given here)	–	35.9	31.2	–	–	–	–	31.5	28.1	–	–	–	–	–	–	–	–	–	–	–
O=C1CCCCC/C1=C\c1cccc(F)c1	> 100	–	> 100	–	> 100	> 100	> 100	> 100	> 100	> 100	–	–	–	–	–	–	–	–	–	–
COc1ccc(/C=C2\CCCc3ccccc3C2=O)cc1	–	2.98	16	> 100	53.1	–	> 100	14.6	17.6	5.11	–	–	–	–	–	–	–	–	–	–
O=c1[nH]nc(-c2ccccc2)c2[nH]c3c(c12)Cc1ccccc1-3	> 100	70.7	–	> 100	37.3	> 100	> 100	> 70	> 83.5	> 28.3	–	–	–	–	–	–	–	–	–	–
COc1cccc(C(C#N)NNC(=O)c2c(Cl)c(Cl)c(Cl)c(Cl)c2-c2nc3ccc(C(=O)c4ccccc4)cc3[nH]2)c1O (stereo not given)	4.69	8.43	10.5	> 100	–	> 100	> 100	> 100	> 100	–	–	–	–	–	–	–	–	–	–	–
CCC1=C(C[C@H]2NCCc3cc(OC)c(OC)cc32)C[C@H]2c3cc(OC)c(OC)cc3CCN2C1	0.189	–	0.0551	0.0717	–	–	–	0.182	–	0.148	–	–	–	–	–	–	–	–	–	–
Cc1ccc(-n2nncc2[Si](C)(C)C)s1	> 100	> 100	> 100	> 100	> 100	> 100	> 100	> 100	–	> 100	–	–	–	–	–	–	–	–	–	–
